Read-outs that look alike come from different tables or passages of the source.
Experiments:
human ATGL = biological target: T1, human ATGL (Homo sapiens, UniProt Q96AD5); experiment: TG hydrolase activity, Expi cell lysates expressing human ATGL + CGI-58, radiolabelled triolein; assay type: biochemical
T1 construct: made in house; host or cells: Expi cells (lysate, not purified)
T1 sequence (Q96AD5 1-504): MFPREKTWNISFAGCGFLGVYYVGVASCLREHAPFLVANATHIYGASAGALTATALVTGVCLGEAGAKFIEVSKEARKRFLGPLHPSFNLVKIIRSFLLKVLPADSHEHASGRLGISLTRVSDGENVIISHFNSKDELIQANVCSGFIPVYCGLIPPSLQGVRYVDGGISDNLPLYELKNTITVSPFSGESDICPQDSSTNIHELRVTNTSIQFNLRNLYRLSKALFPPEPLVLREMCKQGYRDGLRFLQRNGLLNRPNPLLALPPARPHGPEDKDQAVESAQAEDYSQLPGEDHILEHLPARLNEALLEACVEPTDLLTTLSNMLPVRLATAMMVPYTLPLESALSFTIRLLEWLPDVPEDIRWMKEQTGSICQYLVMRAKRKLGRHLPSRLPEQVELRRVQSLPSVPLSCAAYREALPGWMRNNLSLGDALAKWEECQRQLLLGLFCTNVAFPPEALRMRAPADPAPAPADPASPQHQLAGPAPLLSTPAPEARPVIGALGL
Protocol: (§1) Triglyceride (TG) hydrolase activity was measured as previously described (Schweiger M et al., Methods in Enzymology, 2014, 538:171-93). In brief, TG hydrolase activity was determined by adding recombinant purified CGI-58 to Expi cell lysates expressing human ATGL. For determination of cross-species reactivity Expi lysates expressing ATGL from different model organisms (e.g. mouse, rat, rhesus monkey, goat, etc.) were used. Samples were incubated with DMSO (carrier) or increasing concentrations of ATGL inhibitors dissolved in DMSO. TG substrate was prepared by emulsifying 330 μM radiolabelled triolein (40,000 c.p.m./nmol) and 45 μM phosphatidylcholine/phosphatidylinositol (3:1) in 100 mM potassium phosphate buffer (pH 7.0) by sonication and adjusting to 5% essentially FA-free BSA. TG substrate was added to the reaction mixture and incubated for 1 h at 37° C. in the water bath. The reaction was terminated by adding methanol/chloroform/heptane (10:9:7) and 0.1 M potassium carbonate with 0.1 M boric acid (pH 10.5). After centrifugation at 800 g for 15 min the radioactivity in the upper phase was determined by liquid scintillation counting and the rate of FA hydrolysis was calculated. IC50 values were determined as inhibitor concentration capable of inhibiting TG hydrolase activity by 50% as compared to DMSO control. Samples were measured as duplicates. The determination of IC50 values for human ATGL is illustrated in FIG. 1.

murine ATGL = biological target: T2, murine ATGL (Mus musculus, UniProt Q8BJ56); experiment: TG hydrolase activity, Expi lysates expressing mouse ATGL + CGI-58, radiolabelled triolein; assay type: biochemical; details: 50 μM; Example 238; read-out: % Inhibition of murine ATGL at 50 μM
T2 construct: made in house; host or cells: Expi cells (lysate)
T2 sequence (Q8BJ56 1-486): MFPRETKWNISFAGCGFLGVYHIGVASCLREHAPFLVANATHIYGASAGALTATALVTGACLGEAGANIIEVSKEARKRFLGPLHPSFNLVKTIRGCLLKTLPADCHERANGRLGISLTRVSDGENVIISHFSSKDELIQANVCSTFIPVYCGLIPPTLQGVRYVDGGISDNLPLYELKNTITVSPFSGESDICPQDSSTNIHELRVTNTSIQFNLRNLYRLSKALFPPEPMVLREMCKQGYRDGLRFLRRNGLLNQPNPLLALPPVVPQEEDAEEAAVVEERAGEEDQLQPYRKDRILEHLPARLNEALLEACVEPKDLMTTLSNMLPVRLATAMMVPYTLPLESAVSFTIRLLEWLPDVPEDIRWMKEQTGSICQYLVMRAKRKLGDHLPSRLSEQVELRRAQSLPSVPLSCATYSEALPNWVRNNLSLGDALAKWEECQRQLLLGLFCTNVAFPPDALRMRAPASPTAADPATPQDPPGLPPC
Protocol: as §1
Lysates from Expi cells overexpressing ATGL from mouse (Mus musculus) were incubated with recombinant purified ATGL co-activator CGI-58 and ATGL inhibitors at 50 μM. Subsequently, substrate containing radiolabeled triolein was added and liberated FA were extracted and quantified by liquid scintillation. Inhibitors were dissolved in DMSO which was used as control. Samples were measured in triplicates.

[1] = Example 237, read-out: Inhibition of human ATGL − IC50

CCOc1ccc(-c2cccc(C(=O)OCCCOC)n2)cc1 [Example 3]
melting point: 36 to 38 °C

CCOc1ccc(-c2cccc(C(=O)OCC(C)(C)C)n2)cc1 [Example 4]
melting point: 89 to 92 °C

CCOc1ccc(-c2cccc(C(=O)OCCCO)n2)cc1 [Example 5]
melting point: 61 to 63 °C

CCCCCCOC(=O)c1cccc(-c2ccc(OCC)cc2)n1 [Example 7]
melting point: 48 to 51 °C

CCOC(=O)c1cccc(-c2ccc(OCc3ccccc3)cc2)n1 [Example 9]
melting point: 143 to 145 °C

CC(C)OC(=O)c1cccc(-c2ccc(O)cc2)n1 [Example 10]
melting point: 154 to 157 °C

CC(C)OC(=O)c1cccc(-c2ccc(N(C)C)cc2)n1 [Example 17]
melting point: 134 to 140 °C

CCOc1ccc(-c2cc(C)cc(C(=O)OC(C)C)n2)cc1 [Example 20]
IC50 (human ATGL; values of text and figure legend, read-out: IC50 on human ATGL (hATGL)): 4 µM | melting point: 85 to 88 °C

CCOc1ccc(-c2cccc(C(=O)OCc3ccccc3)n2)cc1 [Example 22]
melting point: 80 to 81 °C

CCOC(=O)c1cccc(-c2ccccc2)n1 [Example 39]
melting point: 42 to 46 °C

COCc1ccc(-c2cc(OC)cc(C(=O)OC)n2)cc1 [Example 40]
IC50 (human ATGL; [1]): 10 µM | melting point: 65 to 68 °C

CCOC(=O)c1cccc(-c2ccc(-c3ccccn3)cc2)n1 [Example 48]
IC50 (human ATGL; [1]): 25 µM | melting point: 130 to 132 °C

CCOC(=O)c1cccc(-c2ccc(-c3cccnc3)cc2)n1 [Example 49]
IC50 (human ATGL; [1]): 20 µM | melting point: 84 to 104 °C

CCOC(=O)c1cccc(-c2ccc(-c3ccncc3)cc2)n1 [Example 50]
melting point: 127 to 131 °C

CCCOc1ccc(-c2cc(OC)cc(C(=O)OC(C)C)n2)cc1 [Example 59]
IC50 (human ATGL; [1]): 3 µM | melting point: 79 to 81 °C

CC(C)OC(=O)c1cccc(-c2ccc(C(C)(C)C)cc2)n1 [Example 60]
melting point: 104 to 106 °C

CC(C)OC(=O)c1cccc(-c2ccc(C#Cc3ccccc3)cc2)n1 [Example 63]
IC50 (human ATGL; [1]): 6 µM | melting point: 136 to 143 °C

CCSc1ccc(-c2cccc(C(=O)OC(C)C)n2)cc1 [Example 64]
IC50 (human ATGL; [1]): 6 µM | melting point: 93 to 96 °C

COc1cc(C(=O)OC(C)C)nc(-c2ccc(-c3cccnc3)cc2)c1 [Example 65]
IC50 (human ATGL; [1]): 6 µM | melting point: 118 to 121 °C

CCCc1ccc(-c2cccc(C(=O)OCC)n2)cc1 [Example 66]
IC50 (human ATGL; [1]): 10 µM | melting point: 68 to 69 °C

CC(C)OC(=O)c1cccc(-c2ccc(CCc3ccccc3)cc2)n1 [Example 67]
IC50 (human ATGL; [1]): 2 µM | melting point: 88 to 89 °C

C#C[C@@H](C)OC(=O)c1cccc(-c2ccc(CCC)cc2)n1 [Example 71]
IC50 (human ATGL; [1]): 2 µM | melting point: 112 to 113 °C

C#C[C@H](C)OC(=O)c1cccc(-c2ccc(CCC)cc2)n1 [Example 72]
melting point: 112 to 113 °C

CCOc1ccc(-c2cccc(C(=O)OC/C=C/c3ccccc3)n2)cc1 [Example 73]
IC50 (human ATGL; [1]): 3 µM | melting point: 110 °C

CCOc1ccc(-c2cccc(C(=O)OCCc3ccccc3)n2)cc1 [Example 74]
melting point: 80 to 82 °C

COC(=O)c1cccc(-c2ccc(C(F)(F)F)cc2)n1 [Example 78]
melting point: 95 to 96 °C

CC(C)OC(=O)c1cccc(C#Cc2ccccc2)n1 [Example 79]
melting point: 85 to 86 °C

CCOC(=O)c1cccc(-c2ccc(C(F)(F)F)cc2)n1 [Example 81]
melting point: 110 to 112 °C

C=CCOC(=O)c1cccc(-c2ccc(C(F)(F)F)cc2)n1 [Example 82]
melting point: 79 to 80 °C

CSc1ccc(-c2cccc(C(=O)OC(C)C)n2)cc1 [Example 90]
IC50 (human ATGL; [1]): 3 µM | melting point: 60 to 61 °C

CCOC(=O)c1csc(-c2ccc(C(F)(F)F)cc2)n1 [Example 183, Ethyl 2-(4-(trifluoromethyl)phenyl)thiazole-4-carboxylate]
melting point: 100 °C

CCOC(=O)c1csc(-c2ccc(C)cc2)n1 [Example 184, Ethyl 2-(p-tolyl)thiazole-4-carboxylate]
melting point: 39 to 41 °C

CCOC(=O)c1csc(-c2ccc(C(C)(C)C)cc2)n1 [Example 186, Ethyl 2-(4-(tert-butyl)phenyl)thiazole-4-carboxylate]
melting point: 50 to 52 °C

CCOC(=O)c1csc(-c2ccc(O)cc2)n1 [Example 188, Ethyl 2-(4-hydroxyphenyl)thiazole-4-carboxylate]
melting point: 171 °C

CCOc1ccc(-c2cccc(C(=O)OCCc3ccco3)n2)cc1 [Example 191, 2-(Furan-2-yl)ethyl 6-(4-ethoxyphenyl)picolinate]
melting point: 82 to 84 °C

CCOc1ccc(-c2cccc(C(=O)OCc3ccccn3)n2)cc1 [Example 192, Pyridin-2-ylmethyl 6-(4-ethoxyphenyl)picolinate]
melting point: 124 to 127 °C

CCOc1ccc(-c2cccc(C(=O)OCc3cccnc3)n2)cc1 [Example 193, Pyridin-3-ylmethyl 6-(4-ethoxyphenyl)picolinate]
melting point: 107 to 110 °C

CCOc1ccc(-c2cccc(C(=O)OCc3ccncc3)n2)cc1 [Example 194, Pyridin-4-ylmethyl 6-(4-ethoxyphenyl)picolinate]
melting point: 101 to 106 °C

CCOc1ccc(-c2cccc(C(=O)OCCc3cccs3)n2)cc1 [Example 195, 2-(Thiophen-2-yl)ethyl 6-(4-ethoxyphenyl)picolinate]
melting point: 73 to 78 °C

CCOc1ccc(-c2cccc(C(=O)OCCc3ccsc3)n2)cc1 [Example 196, 2-(Thiophen-3-yl)ethyl 6-(4-ethoxyphenyl)picolinate]
melting point: 73 to 76 °C

CCOc1ccc(-c2cccc(C(=O)OCc3cncs3)n2)cc1 [Example 199, Thiazol-5-ylmethyl 6-(4-ethoxyphenyl)picolinate]
melting point: 75 to 80 °C

CCOc1ccc(-c2nc(C(=O)OCc3cncs3)cs2)cc1 [Example 217, Thiazol-5-ylmethyl-2-(4-ethoxyphenyl)thiazole-4-carboxylate]
IC50 (human ATGL; Example 238, read-out: Inhibition of human ATGL IC50): 20 µM | inhibition at 50 µM (murine ATGL): 77%

CCOC(=O)c1ccc(-c2ccc(OCC)cc2)nc1 [NG-408]
melting point: 106 to 108 °C

CCOc1ccc(-c2cccc(C#N)n2)cc1 [NG-437]
melting point: 109 to 111 °C

CCOc1ccc(-c2ccc(O)c(C(=O)OC)n2)cc1 [NG-461]
melting point: 114 to 116 °C

CCOc1ccc(-c2ccc(OC)c(C(=O)OC)n2)cc1 [NG-462]
melting point: 114 to 116 °C

CCOc1ccc(-c2ccc(OC(C)=O)c(C(=O)OC)n2)cc1 [NG-477]
melting point: 120 to 123 °C

CC(C)OC(=O)c1cccc(-c2ccc(Cl)c(Cl)c2)n1 [NG-481]
melting point: 74 to 76 °C

CC(C)OC(=O)c1cccc(-c2ccc(C(F)(F)F)cc2F)n1 [NG-587]
melting point: 96 to 97 °C

CCOc1ccc(-c2cccc(C(F)(F)F)n2)cc1 [NG-622]
melting point: 100 to 101 °C

CCOc1ccc(-c2cccc(C(C)=O)n2)cc1 [NG-631]
melting point: 80 to 86 °C

CCOC(=O)Cc1cccc(-c2ccc(OCC)cc2)n1 [NG-640]
melting point: 90 to 91 °C
